ChEMBL document CHEMBL1201862, “PubChem BioAssay data set” (2004)
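Briefly, cells in 96-well plates were exposed to five compound concentrations for 48 h, and endpoints were estimated by linear interpolation. Here, GI50 denotes the concentration required for 50% inhibition of growth.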 Active and inactive are the calls of the source. Rule as the data show it: active = GI50 up to about 1.1 µM and inactive = higher.

Columns and labels:
Assay in all cases: NCI anticancer screen, dose series, 48 h
[1] = system: HCC 2998
[2] = system: BT-549
[3] = system: HL-60
[4] = system: M14
[5] = system: SF-268
[6] = system: UACC-257
[7] = system: KM12
[8] = system: OVCAR-3
[9] = system: HOP-92
[10] = system: CAKI-1
[11] = system: NCI-H23
[12] = system: HCT-15
[13] = system: EKVX
[14] = system: Hs-578T
[15] = system: SK-MEL-28
[16] = system: NCI-H226
[17] = system: SNB-19
[18] = system: 786-0
[19] = system: K562

Compound | GI50 [1] | GI50 [2] | GI50 [3] | GI50 [4] | GI50 [5] | GI50 [6] | GI50 [7] | GI50 [8] | GI50 [9] | GI50 [10] | GI50 [11] | GI50 [12] | GI50 [13] | GI50 [14] | GI50 [15] | GI50 [16] | GI50 [17] | GI50 [18] | GI50 [19]
Cc1cccc(NC(=S)N/N=C(/c2ccccc2)c2ccccn2)c1 | 2.84 µM (inactive) | 2.5 µM (inactive) | < 0.0137 µM (active) | < 0.01 µM (active) | 0.0863 µM (active) | < 0.0162 µM (active) | 0.0796 µM (active) | < 0.0182 µM (active) | 0.484 µM (active) | 0.249 µM (active) | < 0.0282 µM (active) | 0.0255 µM | 0.0885 µM (active) | 9.02 µM (inactive) | 1.89 µM (inactive) | 0.207 µM (active) | 3.6 µM (inactive) | 0.948 µM (active) | < 0.0135 µM (active)
COc1ccc2c(c1)C(=O)c1ccccc1C2 | 70.8 µM (inactive) | 64.1 µM (inactive) | 16.3 µM (inactive) | 93.8 µM (inactive) | 70.5 µM (inactive) | 33.8 µM (inactive) | 63 µM (inactive) | 82.2 µM (inactive) | 64 µM (inactive) | 79.6 µM (inactive) | 96.4 µM (inactive) | 60.7 µM | 39.6 µM (inactive) | 44.4 µM (inactive) | > 100 µM (inactive) | > 100 µM (inactive) | > 100 µM (inactive) | 73.8 µM (inactive) | 40.3 µM (inactive)
CCOC(=O)c1sc2nc(SC)nc(Nc3ccc(OC)c(OC)c3)c2c1N | 60 µM (inactive) | 17.7 µM (inactive) | > 100 µM (inactive) | 42.4 µM (inactive) | 14.3 µM (inactive) | > 100 µM (inactive) | > 100 µM (inactive) | 9.35 µM (inactive) | 9.89 µM (inactive) | 89.9 µM (inactive) | 3.52 µM (inactive) | > 100 µM | 23.3 µM (inactive) | 17.7 µM (inactive) | 14.7 µM (inactive) | 7.94 µM (inactive) | 18 µM (inactive) | 5.51 µM (inactive) | > 100 µM (inactive)
Nc1nc2ncc(SCc3ccc(C(=O)NC(CCC(=O)O)C(=O)O)cc3)cc2c(=O)[nH]1 (stereo not given) | > 100 µM (inactive) | > 100 µM (inactive) | > 100 µM (inactive) | > 100 µM (inactive) | > 100 µM (inactive) | > 100 µM (inactive) | > 100 µM (inactive) | > 100 µM (inactive) | > 100 µM (inactive) | > 100 µM (inactive) | > 100 µM (inactive) | > 100 µM | > 100 µM (inactive) | > 100 µM (inactive) | > 100 µM (inactive) | > 100 µM (inactive) | > 100 µM (inactive) | > 100 µM (inactive) | > 100 µM (inactive)
CCOC(=O)c1cc(-c2ccc(OC)cc2)c([N+](=O)[O-])[nH]1 | > 10 µM (inactive) | > 10 µM (inactive) | > 10 µM (inactive) | > 10 µM (inactive) | > 10 µM (inactive) | > 10 µM (inactive) | > 10 µM (inactive) | > 10 µM (inactive) | > 10 µM (inactive) | > 10 µM (inactive) | > 10 µM (inactive) | > 10 µM | > 10 µM (inactive) | > 10 µM (inactive) | > 10 µM (inactive) | > 9.08 µM (inactive) | > 10 µM (inactive) | > 10 µM (inactive) | 1.95 µM (inactive)
C=C1C[C@]23CC[C@@H]4C(CO)(CO)CC(=O)C[C@]4(C)[C@@H]2C(O)C[C@H]1C3 (stereo not given in full) | > 100 µM (inactive) | > 100 µM (inactive) | > 100 µM (inactive) | > 100 µM (inactive) | > 100 µM (inactive) | > 100 µM (inactive) | > 100 µM (inactive) | > 100 µM (inactive) | > 100 µM (inactive) | > 100 µM (inactive) | > 100 µM (inactive) | > 100 µM | > 100 µM (inactive) | > 100 µM (inactive) | > 100 µM (inactive) | > 100 µM (inactive) | > 100 µM (inactive) | > 100 µM (inactive) | > 100 µM (inactive)
COC(=O)/C=C1/OC(c2ccc(C)cc2)=C(Cl)C1=O | 18.9 µM (inactive) | 17.7 µM (inactive) | 3.31 µM (inactive) | 18.1 µM (inactive) | 16.4 µM (inactive) | 20.3 µM (inactive) | 14.6 µM (inactive) | 12.4 µM (inactive) | 15.2 µM (inactive) | 16 µM (inactive) | 19 µM (inactive) | 9.25 µM | 21.3 µM (inactive) | 22.9 µM (inactive) | 16.7 µM (inactive) | 23 µM (inactive) | 22.2 µM (inactive) | 13.9 µM (inactive) | 4.97 µM (inactive)
CCOC(=O)C1(C(N)=O)C(=O)c2ccncc2C1=O (stereo not given) | > 100 µM (inactive) | > 100 µM (inactive) | > 100 µM (inactive) | > 100 µM (inactive) | > 100 µM (inactive) | > 100 µM (inactive) | > 100 µM (inactive) | > 100 µM (inactive) | > 100 µM (inactive) | > 100 µM (inactive) | > 100 µM (inactive) | > 100 µM | > 100 µM (inactive) | > 100 µM (inactive) | > 100 µM (inactive) | > 100 µM (inactive) | > 100 µM (inactive) | > 100 µM (inactive) | > 100 µM (inactive)
C=C(Cl)C(Cl)(CBr)CCC(Br)C(C)(C)Br (stereo not given) | 5.75 µM (inactive) | 7.66 µM (inactive) | 2.19 µM (inactive) | 16.3 µM (inactive) | 3.22 µM (inactive) | 1.8 µM (inactive) | 1.38 µM (inactive) | 2.93 µM (inactive) | 2.76 µM (inactive) | 2.47 µM (inactive) | 14.2 µM (inactive) | 3.03 µM | 8.45 µM (inactive) | 2.96 µM (inactive) | 2.95 µM (inactive) | 20.1 µM (inactive) | 8.75 µM (inactive) | 1.14 µM (inactive) | 4.73 µM (inactive)
CC(=O)OC/C=C/Cn1nc(Br)c(=O)[nH]c1=O | > 100 µM (inactive) | > 100 µM (inactive) | > 100 µM (inactive) | > 100 µM (inactive) | > 100 µM (inactive) | > 100 µM (inactive) | > 100 µM (inactive) | > 100 µM (inactive) | > 100 µM (inactive) | > 100 µM (inactive) | > 100 µM (inactive) | > 100 µM | > 100 µM (inactive) | > 100 µM (inactive) | > 100 µM (inactive) | > 100 µM (inactive) | > 100 µM (inactive) | > 100 µM (inactive) | > 100 µM (inactive)
COc1ccc2c(c1)c(=O)c1c(NCCN(C)C)ccc3c(=O)n(CCN(C)C)c(=O)n2c31 | 0.0247 µM (active) | 0.764 µM (active) | 0.101 µM (active) | 0.159 µM (active) | 0.114 µM (active) | 0.166 µM (active) | 0.0815 µM (active) | 0.182 µM (active) | 0.0483 µM (active) | 0.0283 µM (active) | 0.11 µM (active) | < 0.0223 µM | 0.124 µM (active) | 0.178 µM (active) | 0.383 µM (active) | 0.163 µM (active) | 0.206 µM (active) | < 0.0125 µM (active) | < 0.01 µM (active)
O=C(Oc1cccc(Cl)c1)c1cc2cc(CCl)ccc2oc1=O | 16 µM (inactive) | > 100 µM (inactive) | 19 µM (inactive) | 14.6 µM (inactive) | 80 µM (inactive) | 16.3 µM (inactive) | 28.6 µM (inactive) | 39.8 µM (inactive) | 19.8 µM (inactive) | 60.7 µM (inactive) | 59 µM (inactive) | 88.3 µM | 44.4 µM (inactive) | 59.8 µM (inactive) | 40 µM (inactive) | 37.8 µM (inactive) | 36.8 µM (inactive) | 41.8 µM (inactive) | 41.4 µM (inactive)
CC(C(=O)OCc1ccccc1)(c1ccco1)N1C(=O)OC(c2ccccc2)C1c1ccccc1 (stereo not given) | > 100 µM (inactive) | > 100 µM (inactive) | 3.81 µM (inactive) | > 100 µM (inactive) | > 100 µM (inactive) | > 100 µM (inactive) | > 25.8 µM (inactive) | > 100 µM (inactive) | > 100 µM (inactive) | > 100 µM (inactive) | > 100 µM (inactive) | > 100 µM | 99.3 µM (inactive) | > 100 µM (inactive) | > 100 µM (inactive) | > 100 µM (inactive) | > 100 µM (inactive) | > 100 µM (inactive) | 7.18 µM (inactive)
O=c1c2cc3c(cc2[nH]c2ncccc12)OCO3 | > 10 µM (inactive) | > 10 µM (inactive) | > 10 µM (inactive) | > 10 µM (inactive) | > 10 µM (inactive) | > 10 µM (inactive) | > 10 µM (inactive) | > 10 µM (inactive) | > 10 µM (inactive) | > 10 µM (inactive) | > 10 µM (inactive) | > 10 µM | > 10 µM (inactive) | > 10 µM (inactive) | > 10 µM (inactive) | > 10 µM (inactive) | > 10 µM (inactive) | > 10 µM (inactive) | > 10 µM (inactive)
COC(=O)C1CC23C=CCN4CC(C2C)C2(c5ccccc5NC12)C43 (stereo not given) | > 100 µM (inactive) | > 100 µM (inactive) | 64 µM (inactive) | > 100 µM (inactive) | > 100 µM (inactive) | > 100 µM (inactive) | > 100 µM (inactive) | > 100 µM (inactive) | > 100 µM (inactive) | > 100 µM (inactive) | > 100 µM (inactive) | > 100 µM | > 100 µM (inactive) | > 100 µM (inactive) | > 100 µM (inactive) | > 100 µM (inactive) | > 100 µM (inactive) | > 100 µM (inactive) | > 100 µM (inactive)
